# Assay results from patent US9238602B1, “Process for the preparation of cis-2,2,4,4-tetramethylcyclobutane-1,3-diol” (Eastman Chemical Company, priority 2014, dated 2016).
# Assay: cis/trans 2,2,4,4-tetramethylcyclobutane-1,3-diol solubility ratio (cis isomer solubility limit divided by trans isomer solubility limit)
# Format: physicochemical
# Experimental: The definition of cis/trans 2,2,4,4-tetramethylcyclobutane-1,3-diol solubility ratio is also known to one of ordinary skill in the art; in one embodiment, the cis/trans 2,2,4,4-tetramethylcyclobutane-1,3-diol solubility ratio can be defined as the ratio of the cis isomer solubility limit divided by the trans isomer solubility limit at a given temperature for a given solvent or solvents. For example, the cis/trans solubility ratio in water at 80° C. is about 1.0. For MIBC, the cis/trans solubility ratio at 80° C. is about 0.74.
smiles,measurement,setting,value
"CC1(C)C(O)C(C)(C)C1O (centres unmarked) [2,2,4,4-tetramethylcyclobutane-1,3-diol]",cis/trans solubility ratio,in MIBC (methyl isobutyl carbinol) at 80° C.,about 0.74
same,cis/trans solubility ratio,in water at 80° C.,about 1.0
